In brackets after ≈: the same amount, converted by molar mass.
Assay: solubility of acetaminophen in recrystallisation solvent (50% water and 50% methanol)
Type: physicochemical
Conditions: aqueous with cosolvent or surfactant or cyclodextrin; solvent mixture of 50% water and 50% methanol by volume, heated to near boiling
Description: Heat the reaction mixture at about 115° C. with stirring for about 10 minutes to complete the reaction. Once complete, cool the mixture thoroughly in an ice bath for 15-20 minutes and collect the crystals by vacuum filtration on a Hirsch funnel. To decolorize the crude product, dissolve 0.2 g of sodium dithionite (sodium hydrosulfite) in 1.5 mL of water in a 5-mL conical vial. Add the crude acetaminophen to the vial. Heat the mixture at about 100° C. for 15 minutes, with occasional stirring. Cool the mixture to precipitate the decolorized acetaminophen. To purify the decolorized product, dissolve the material in a solvent mixture composed of 50% water and 50% methanol by volume, heated to boiling. The solubility of acetaminophen in the near-boiling solvent is about 0.2 g/mL. Cool the solution to precipitate the acetaminophen.

In the case of `CC(=O)Nc1ccc(O)cc1` [acetaminophen, N-acetyl-p-aminophenol], the solubility is reported as roughly 200 mg/mL (≈ 1320 mM).

From patent publication US10286504B2, “Synthesis of paracetamol (acetaminophen) from biomass-derived p-hydroxybenzamide” (Wisconsin Alumni Research Foundation, priority 2017, dated 2019)
